Experimental data reported in article doi:10.1101/2025.09.29.679234, “Engineered antimicrobial-derived peptides to manipulate mixed microbial systems” (bioRxiv, 2025).
Read-outs that look alike come from different tables or passages of the source. No end group written: not given here. *: point of attachment. FITC = O=C1OC2(c3ccc(O)cc3Oc3cc(O)ccc32)c2ccc(NC(=S)*)cc21

Tests used:
E. faecium = assay: Cell-binding assay by flow cytometry; parameters: species or system Enterococcus faecium; details: pH 6.0
Procedure: (§1) The binding affinity and avidity of pediocin to various Gram-positive and Gram-negative bacteria were studied using flow cytometry. Late log-phase cells were washed in the sodium phosphate buffer (5 mM, pH 6.0) and resuspended at an OD600 of 10^–3 in sodium-acetate buffer (25 mM, pH 4.0), sodium phosphate buffer (5 mM, pH 6.0) or sodium phosphate buffer (5mM, pH 7.4) containing 1 % BSA (bovine serum albumin) and 100 mM NaCl. Cells were incubated with varying concentrations of the conjugated peptide at 4 °C for 30 min. The unbound peptide was removed by centrifugation, and the pellet was resuspended in their respective binding containing 1 % BSA. Flow cytometry was performed on an Attune NxT flow cytometer (Life Technologies/ThermoFisher Scientific, Carlsbad, CA). Data (≥10^4 events were recorded) was recorded using a […] (488 nm) voltage of 360 V, gating was performed on SSC-A versus SSC-H plot to reduce false events.

L. seeligeri [1] = assay: Cell-binding assay by flow cytometry; parameters: species or system Listeria seeligeri; details: for binding at the tested pHs (in words): pH 4.0, 6.0 and 7.4, Figure S10
Procedure: as §1

[2] = tested on: L. seeligeri in a 5 species synthetic community; assay: Depletion by FACS of FITC-labelled cells in the mixed community (16S V3-V4 amplicon sequencing of the fluorescence-negative population); type: cell-based, Listeria seeligeri; details: 40 μM of Ped-FITC printed in method, 4 °C 30 min, pH 6.0, 1 % BSA, 100 mM NaCl
Description: We posited that pediocin PA-1 characterized here could be a potential tool to modulate the abundance of specific species in an intact microbial community. To this end, we pursued two approaches: 1) using synthetic pediocin PA-1 to deplete specific species by killing and 2) using FITC-conjugated pediocin PA-1 to deplete specific species by cell sorting. To deplete L. seeligeri by killing, we created a synthetic community of L. casei, L. plantarum L. cremoris, E. faecium, and L. seeligeri and grew it for 2 h. We then split the culture into 3 parts to which we added 1 μM, 10 μM, or 0 (control) unmodified pediocin PA-1 (Lifetein), respectively. We observed that after 4 h, the proportion of L. seeligeri in the control (untreated) increased from 18 % to 60 %. […] Next, we assessed the ability of FITC-conjugated pediocin (Ped-FITC) and its 15-mer version to deplete the target species through cell sorting. Again, we created a synthetic community containing L. seeligeri in abundance and assessed the proportion before and after FACS of FITC labeled cells. We attempted to sequence the fluorescence-positive population but were unsuccessful due to poor DNA yield. However, the genomic DNA isolated from the fluorescence-negative population indicated depletion of more than 50 % in the proportion of L. seeligeri from the synthetic community (Figure 4B). […]

L. seeligeri [3] = type: cell-based, Listeria seeligeri; details: for antimicrobial activity (in words): kill curve / growth inhibition, Figures S7 and S9
Procedure: To determine the potency of the purified pediocin PA-1, we generated kill-curves against a range of target bacteria (Figure 1B). The concentration range tested was 3 pM to 3 μM following 10-fold serial dilutions. […] This is in approximate agreement with the published potency of pediocin PA-1 [28] . Though the molecular mass of pediocin PA-1 is expected to be 4.5 kDa, we observed the partially purified peptide to migrate with an apparent mass of ~12.5 kDa (Figure 1B). However, subsequent analysis by LC-MS yielded peaks of multiple m/z with the predominant peak at the expected molecular size of 4.6 kDa (Figure S4). The purified pediocin PA-1, separated on denaturing but non-reducing SDS-PAGE (since this bacteriocin contains two crucial disulfide bonds), was subjected to agar-overlay assay using L. seeligeri as indicator organism (Figure S5).
The antimicrobial spectrum of pediocin PA-1 was assayed using a kill curve. Cultures grown overnight were resuspended in fresh medium at an OD600 of 0.05. EC50 was determined by incubating cells with varying concentrations of pediocin in a 96-well plate, and growth was measured at 600 nm after 24 h.
Figure S7. Growth inhibition of L. seeligeri by modified and unmodified pediocin PA-1.

B. subtilis = assay: Cell-binding assay by flow cytometry; parameters: species or system Bacillus subtilis; details: flow cytometry
Procedure: as §1

L. coryniformis = assay: Cell-binding assay by flow cytometry; parameters: species or system Lactobacillus coryniformis; details: flow cytometry, Atto488 conjugate up to 2 μM
Procedure: as §1

## 15-mer-FITC: FITC-conjugated 15-mer (K20-A34) fragment of pediocin PA-1 (KATTCIINNGAMAWA; also: FITC-conjugated, site not given here; UniProt P29430 38-52, looked up, fragment)
E. faecium
  binding (in words): modest binding
L. seeligeri [1]
  binding at the tested pHs (in words): pH-dependent binding
L. seeligeri [1]; pH 6.0 sodium phosphate 5 mM, 1 % BSA, 100 mM NaCl, 4 °C 30 min, read-out: apparent KD
  Kd: 2800 ± 300 nM
[2]
  depletion in the proportion of L. seeligeri (fluorescence-negative population after FACS): more than 50%

## 30-mer-FITC: FITC-conjugated extended 30-mer fragment (S15-K43) of pediocin PA-1 (SVDWGKATTCIINNGAMAWATGGHQGNHK; also: FITC-conjugated, site not given here; UniProt P29430 33-61, looked up, fragment)
L. seeligeri [1]
  binding at the tested pHs (in words): pH-dependent binding
L. seeligeri [1]; pH 6.0, L. seeligeri or the other species tested
  binding (in words): unable to bind to any species tested

## CC[C@H](C)[C@@H]1NC(=O)[C@@H](NC(=O)[C@@H](NC(=O)[C@@H](NC(=O)[C@H](C)NC(=O)[C@H](CCCCN)NC(=O)CNC(=O)[C@H](Cc2c[nH]c3ccccc23)NC(=O)[C@H](CC(=O)O)NC(=O)[C@@H](NC(=O)[C@H](CO)NC(=O)[C@@H]2CSSC[C@H](NC(=O)[C@@H](NC(=O)[C@@H](NC(=O)CNC(=O)[C@H](CC(N)=O)NC(=O)CNC(=O)[C@H](Cc3ccc(O)cc3)NC(=O)[C@H](Cc3ccc(O)cc3)NC(=O)[C@@H](N)CCCCN)C(C)C)[C@@H](C)O)C(=O)NCC(=O)N[C@@H](CCCCN)C(=O)N[C@@H](Cc3c[nH]cn3)C(=O)N[C@@H](CO)C(=O)N2)C(C)C)[C@@H](C)O)[C@@H](C)O)CSSC[C@@H](C(N)=O)NC(=O)[C@H](CCCCN)NC(=O)[C@H](Cc2c[nH]cn2)NC(=O)[C@H](CC(N)=O)NC(=O)CNC(=O)[C@H](CCC(N)=O)NC(=O)[C@H](Cc2c[nH]cn2)NC(=O)CNC(=O)CNC(=O)[C@H]([C@@H](C)O)NC(=O)[C@H](C)NC(=O)[C@H](Cc2c[nH]c3ccccc23)NC(=O)[C@H](C)NC(=O)[C@H](CCSC)NC(=O)[C@H](C)NC(=O)CNC(=O)[C@H](CC(N)=O)NC(=O)[C@H](CC(N)=O)NC(=O)[C@H]([C@@H](C)CC)NC1=O [pediocin PA-1 from Biomatik, reference compound]
L. seeligeri [3]
  antimicrobial activity (in words): very low activity

## CC[C@H](C)[C@@H]1NC(=O)[C@@H](NC(=O)[C@@H](NC(=O)[C@@H](NC(=O)[C@H](C)NC(=O)[C@H](CCCCN)NC(=O)CNC(=O)[C@H](Cc2c[nH]c3ccccc23)NC(=O)[C@H](CC(=O)O)NC(=O)[C@@H](NC(=O)[C@H](CO)NC(=O)[C@@H]2CSSC[C@H](NC(=O)[C@@H](NC(=O)[C@@H](NC(=O)CNC(=O)[C@H](CC(N)=O)NC(=O)CNC(=O)[C@H](Cc3ccc(O)cc3)NC(=O)[C@H](Cc3ccc(O)cc3)NC(=O)[C@@H](N)CCCCN)C(C)C)[C@@H](C)O)C(=O)NCC(=O)N[C@@H](CCCCN)C(=O)N[C@@H](Cc3c[nH]cn3)C(=O)N[C@@H](CO)C(=O)N2)C(C)C)[C@@H](C)O)[C@@H](C)O)CSSC[C@@H](C(N)=O)NC(=O)[C@H](CCCCN)NC(=O)[C@H](Cc2c[nH]cn2)NC(=O)[C@H](CC(N)=O)NC(=O)CNC(=O)[C@H](CCC(N)=O)NC(=O)[C@H](Cc2c[nH]cn2)NC(=O)CNC(=O)CNC(=O)[C@H]([C@@H](C)O)NC(=O)[C@H](C)NC(=O)[C@H](Cc2c[nH]c3ccccc23)NC(=O)[C@H](C)NC(=O)[C@H](CCSC)NC(=O)[C@H](C)NC(=O)CNC(=O)[C@H](CC(N)=O)NC(=O)[C@H](CC(N)=O)NC(=O)[C@H]([C@@H](C)CC)NC1=O [synthetic pediocin PA-1, reference compound]
L. seeligeri [3]; 24 h
  EC50: ~40 nM

## Ped-488: purified biosynthetic pediocin conjugated to Atto488 using EDC-NHS chemistry (KYYGNGVTCGKHSCSVDWGKATTCIINNGAMAWATGGHQGNHKC; disulfide (positions not given here); ends not checked; also: Atto488 conjugated via EDC-NHS, site not given here; UniProt P29430 19-62, looked up)
B. subtilis; Atto488 conjugate up to 2 μM, 4 °C 30 min, 1 % BSA, 100 mM NaCl, Hill fit, read-out: Apparent KD
  Kd: ~467 nM
L. seeligeri [3]; Atto488 conjugate vs unmodified pediocin
  reduction in potency relative to the unmodified peptide: 10 fold
L. seeligeri [3]
  antimicrobial activity (in words): maintained its antimicrobial activity
L. seeligeri [3]; listed as Full-length pediocin conjugated to Atto488
  antimicrobial activity (in words): retained antimicrobial activity
L. seeligeri [3]; listed as conjugate to Atto488
  antimicrobial activity (in words): very low activity
L. coryniformis
  maximum median fluorescence: 6300 MFI
L. coryniformis; 4 °C 30 min, 1 % BSA, 100 mM NaCl, Hill fit, read-out: Apparent KD
  Kd: ~46 nM

## Ped-FITC: synthesized FITC-conjugated full-length pediocin PA-1 ({FITC}-KYYGNGVTCGKHSCSVDWGKATTCIINNGAMAWATGGHQGNHKC; disulfide (positions not given here); ends not checked; UniProt P29430 19-62, looked up)
L. seeligeri [1]
  binding at the tested pHs (in words): strong binding
B. subtilis; pH 6.0, highest concentration tested (30 μM)
  binding (in words): modest binding
L. seeligeri [3]; listed as FITC-conjugation at the N-terminus
  antimicrobial activity (in words): abolished activity entirely
L. seeligeri [3]; listed as conjugate to FITC
  antimicrobial activity (in words): very low activity
[2]
  depletion in the proportion of L. seeligeri (fluorescence-negative population after FACS): more than 50%

## synthetic pediocin-Atto488 conjugate: Atto488 conjugated to the synthetic pediocin using EDC-NHS coupling (KYYGNGVTCGKHSCSVDWGKATTCIINNGAMAWATGGHQGNHKC; disulfide (positions not given here); ends not checked; also: Atto488 conjugated via EDC-NHS, site not given here; UniProt P29430 19-62, looked up)
L. seeligeri [3]
  antimicrobial activity (in words): inactive

## synthetic pediocin-NBD conjugate: NBD (7-nitrobenz-2-oxa-1,3-diazole) conjugated to the synthetic pediocin using EDC-NHS coupling (KYYGNGVTCGKHSCSVDWGKATTCIINNGAMAWATGGHQGNHKC; disulfide (positions not given here); ends not checked; also: NBD conjugated via EDC-NHS, site not given here; UniProt P29430 19-62, looked up)
L. seeligeri [3]
  antimicrobial activity (in words): inactive
L. seeligeri [3]; listed as conjugate to NBD
  antimicrobial activity (in words): very low activity
